Measurements as given in US10844044B2 (Vanderbilt University, priority 2018, dated 2020).
Where two headings read alike, the source gives them in different places.

Biological target: WDR5 (Homo sapiens (Human), UniProt P61964)
Assay: TR-FRET binding assay (displacement of 10mer-Thr-FAM probe from WDR5)
Conditions: read-out: Ki for Inhibition of WDR5 by TR-FRET assay
[1] = TR-FRET, 10mer-Thr-FAM probe, WDR5-His tag 2 nM, pH 7.0

SMILES | Ki [1] [nM] | Ki [nM]
Cc1cc([C@@H](NC(=O)c2cc(Cn3ccoc3=N)cc(C3CC3)c2)C2CC2)ccc1F [Example 265, (S)-3-cyclopropyl-N-(cyclopropyl(4-fluoro-3-methylphenyl)methyl)-5-((2-iminooxazol-3(2H)-yl)methyl)benzamide] | 0.78 | –
Cc1cc([C@@H](NC(=O)c2cc(CN3CCCOC3=N)cc(-c3cccnc3C(F)(F)F)c2)C2CC2)ccc1F [Example 266, (S)—N-(Cyclopropyl(4-fluoro-3-methylphenyl)methyl)-3-((2-imino-1,3-oxazinan-3-yl)methyl)-5-(2-(trifluoromethyl)pyridin-3-yl)benzamide] | 16 | –
N=c1occn1Cc1cc(C(=O)N[C@H](c2ccc(Cl)c(Cl)c2)C2CC2)cc(-c2ccc(F)cc2OC(F)F)c1 [Example 270, (S)—N-(Cyclopropyl(3,4-dichlorophenyl)ethyl)-2′-(difluoromethoxy)-4′-fluoro-5-((2-iminooxazol-3(2)-yl)methyl)-[1,1′-biphenyl]-3-carboxamide] | 0.18 | –
N=c1occn1Cc1cc(C(=O)N[C@H](c2ccc(Cl)c(Cl)c2)C2CC2)cc(-c2cccnc2C(F)(F)F)c1 [Example 271, (S)—N-(Cyclopropyl(3,4-dichlorophenyl)methyl)-3-((2-iminooxazol-3(2H)-yl)methyl)-5-(2-(trifluoromethyl)pyridin-3-yl)benzamide] | 0.72 | –
Cc1cc(F)ccc1-c1cc(Cn2ccoc2=N)cc(C(=O)NCc2ccc(Cl)c(Cl)c2)n1 [Example 277, N-(3,4-Dichlorobenzyl)-6-(4-fluoro-2-methylphenyl)-4-((2-iminooxazol-3(2H)-yl)methyl)picolinamide] | > 33 | –
Cc1cc([C@@H](NC(=O)c2cc(CN3CCOC3=N)cc(-c3cn(CC(C)C)nc3C(F)(F)F)c2)C2CC2)ccc1F [Example 278, (S)—N-(Cyclopropyl(4-fluoro-3-methylphenyl)methyl)-3-((2-iminooxazolidin-3-yl)methyl)-5-(1-isobutyl-3-(trifluoromethyl)-1H-pyrazol-4-yl)benzamide] | 0.34 | –
CCn1cc(-c2cc(CN3CCOC3=N)cc(C(=O)NCC3CCOCC3)c2)c(C(F)(F)F)n1 [Example 288, 3-(1-Ethyl-3-(trifluoromethyl)-1H-pyrazol-4-yl)-5-((2-iminooxazolidin-3-yl)methyl)-N-((tetrahydro-2H-pyran-4-yl)methyl)benzamide] | – | 8.7
CCn1cc(-c2cc(CN3CCOC3=N)cc(C(=O)NCC3CCCO3)c2)c(C(F)(F)F)n1 (centres unmarked) [Example 289, 3-(1-Ethyl-3-(trifluoromethyl)-1H-pyrazol-4-yl)-5-((2-iminooxazolidin-3-yl)methyl)-N-((tetrahydrofuran-2-yl)methyl)benzamide] | 31 | –
CCn1cc(-c2cc(CN3CCOC3=N)cc(C(=O)NCC3CCOC3)c2)c(C(F)(F)F)n1 (centres unmarked) [Example 290, 3-(1-Ethyl-3-(trifluoromethyl)-1H-pyrazol-4-yl)-5-((2-iminooxazolidin-3-yl)methyl)-N-((tetrahydrofuran-3-yl)methyl)benzamide] | 20 | –
Cc1cc([C@@H](NC(=O)c2cc(CN3C[C@H](C)OC3=N)cc(-c3cccnc3C(F)(F)F)c2)C2CC2)ccc1F [Example 296, N—((S)-cyclopropyl(4-fluoro-3-methylphenyl)methyl)-3-(((S)-2-imino-5-methyloxazolidin-3-yl)methyl)-5-(2-(trifluoromethyl)pyridin-3-yl)benzamide] | – | 7
Cc1cc([C@@H](NC(=O)c2cc(CN3C[C@@H](C)OC3=N)cc(-c3cccnc3C(F)(F)F)c2)C2CC2)ccc1F [Example 297, N—((S)-cyclopropyl(4-fluoro-3-methylphenyl)methyl)-3-(((R)-2-imino-5-methyloxazolidin-3-yl)methyl)-5-(2-(trifluoromethyl)pyridin-3-yl)benzamide] | 2.3 | –
CCOc1c(C(=O)N[C@H](c2ccc(F)c(C)c2)C2CC2)cc(Cn2ccoc2=N)cc1-c1cn(C)nc1C(F)(F)F [Example 304] | < 0.1 | –
N=C1SCCN1Cc1cc(C(=O)N[C@H](c2ccc(Cl)c(Cl)c2)C2CC2)cc(-c2cccnc2C(F)(F)F)c1 [Example 311, (S)—N-(Cyclopropyl(3,4-dichlorophenyl)methyl)-3-((2-iminothiazolidin-3-yl)methyl)-5-(2-(trifluoromethyl)pyridin-3-yl)benzamide] | 1.49 | –
Cc1cc([C@@H](NC(=O)c2cc(CN3CCSC3=N)cc(-c3cn(CC(C)C)nc3C(F)(F)F)c2)C2CC2)ccc1F [Example 313, (S)—N-(Cyclopropyl(4-fluoro-3-methylphenyl)methyl)-3-((2-iminothiazolidin-3-yl)methyl)-5-(1-isobutyl-3-(trifluoromethyl)-1H-pyrazol-4-yl)benzamide] | 1.2 | –
Cc1cc([C@@H](NC(=O)c2cc(CN3CCSC3=N)cc(-c3cn(C4CCCC4)nc3C(F)(F)F)c2)C2CC2)ccc1F [Example 314, (S)-3-(1-Cyclopentyl-3-(trifluoromethyl)-1H-pyrazol-4-yl)-N-(cyclopropyl(4-fluoro-3-methylphenyl)methyl)-5-((2-iminothiazolidin-3-yl)methyl)benzamide] | 4 | –
Cc1cc([C@@H](NC(=O)c2cc(CN3CCCSC3=N)cc(-c3cccnc3C(F)(F)F)c2)C2CC2)ccc1F [Example 315, (S)—N-(Cyclopropyl(4-fluoro-3-methylphenyl)methyl)-3-((2-imino-1,3-thiazinan-3-yl)methyl)-5-(2-(trifluoromethyl)pyridin-3-yl)benzamide] | 1 | –
Cc1cc([C@@H](NC(=O)c2cc(CN3CCSC3=N)cc(-c3ccc(F)cc3C#N)c2)C2CC2)ccc1F [Example 316] | – | 0.91
N=C1SCCN1Cc1cc(C(=O)N[C@H](c2ccc(Cl)c(Cl)c2)C2CC2)cc(-c2ncc(F)cc2C(F)(F)F)c1 [Example 317, (S)—N-(Cyclopropyl(3,4-dichlorophenyl)methyl)-3-(5-fluoro-3-(trifluoromethyl)pyridin-2-yl)-5-((2-iminothiazolidin-3-yl)methyl)benzamide] | – | 0.28
N=C1SCCN1Cc1cc(C(=O)N[C@H](c2ccc(F)c(F)c2)C2CC2)cc(-c2cccnc2C(F)(F)F)c1 [Example 318, (S)—N-(Cyclopropyl(3,4-difluorophenyl)methyl)-3-((2-iminothiazolidin-3-yl)methyl)-5-(2-(trifluoromethyl)pyridin-3-yl)benzamide] | – | 0.29
CC(C)n1cc(-c2cc(CN3CCSC3=N)cc(C(=O)N[C@H](c3ccc(F)c(F)c3)C3CC3)c2)c(C(F)(F)F)n1 [Example 319, (S)—N-(Cyclopropyl(3,4-difluorophenyl)methyl)-3-((2-iminothiazolidin-3-yl)methyl)-5-(1-isopropyl-3-(trifluoromethyl)-1H-pyrazol-4-yl)benzamide] | 0.32 | –
CCn1cc(-c2cc(CN3CCSC3=N)cc(C(=O)NCc3ccc(=O)n(C)c3)c2)c(C(F)(F)F)n1 [Example 323, 3-(1-Ethyl-3-(trifluoromethyl)-1H-pyrazol-4-yl)-5-((2-iminothiazolidin-3-yl)methyl)-N-((1-methyl-6-oxo-1,6-dihydropyridin-3-yl)methyl)benzamide] | – | 1.8
Cc1cc([C@@H](NC(=O)c2cc(CN3CCSC3=N)cc(-c3cn(C)nc3C(F)(F)F)c2)C2CC2)ncc1F [Example 326, (S)—N-(Cyclopropyl(5-fluoro-4-methylpyridin-2-yl)methyl)-3-((2-iminothiazolidin-3-yl)methyl)-5-(1-methyl-3-(trifluoromethyl)-1H-pyrazol-4-yl)benzamide] | – | < 0.1
Cc1cc([C@@H](NC(=O)c2cc(Cn3cccc(F)c3=N)cc(-c3cc(C(F)(F)F)nn3C)c2)C2CC2)ccc1F [Example 345, (S)—N-(Cyclopropyl (4-fluoro-3-methylphenyl)methyl)-3-((3-fluoro-2-iminopyridin-1(2H)-yl)methyl)-5-(1-methyl-3-(trifluoromethyl)-1H-pyrazol-5-yl)benzamide] | – | 2.4
Cc1cc([C@@H](NC(=O)c2cc(Cn3ccccc3=N)cc(-c3cc(C(F)(F)F)nn3C)c2)C2CC2)ccc1F [Example 346, (S)—N-(Cyclopropyl(4-fluoro-3-methylphenyl)methyl)-3-((2-iminopyridin-(2H)-yl)methyl)-5-(1-methyl-3-(trifluoromethyl)-1H-pyrazol-5-yl)benzamide] | 1.6 | –
Cc1cc([C@@H](NC(=O)c2cc(Cn3cc(F)ccc3=N)cc(-c3cn(C)nc3C(F)(F)F)c2)C2CC2)ccc1F [Example 353, (S)—N-(cyclopropyl(4-fluoro-3-methylphenyl)methyl)-3-((5-fluoro-2-iminopyridin-1(2H)-yl)methyl)-5-(1-methyl-3-(trifluoromethyl)-1H-pyrazol-4-yl)benzamide] | – | < 0.1
Cc1cc([C@@H](NC(=O)c2cc(Cn3cc(F)ccc3=N)cc(-c3cccnc3C(F)(F)F)c2)C2CC2)ccc1F [Example 354, (S)—N-(cyclopropyl(4-fluoro-3-methylphenyl)methyl)-3-((5-fluoro-2-iminopyridin-1(2H)-yl)methyl)-5-(2-(trifluoromethyl)pyridin-3-yl)benzamide] | < 0.1 | –
Cc1ccnc(C(NC(=O)c2cc(Cn3ccn(C)c3=N)cc(-c3ccc(F)cc3C)n2)C2CC2)c1 (centres unmarked) [Example 356, N-(Cyclopropyl(4-methylpyridin-2-yl)methyl)-6-(4-fluoro-2-methylphenyl)-4-((2-imino-3-methyl-2,3-dihydro-1H-imidazol-1-yl)methyl)picolinamide] | 182 | –
COc1ccnc(CNC(=O)c2cc(Cn3ccn(C)c3=N)cc(-c3ccc(F)cc3C)n2)c1 [Example 357, 6-(4-Fluoro-2-methylphenyl)-4-((2-imino-3-methyl-2,3-dihydro-1H-imidazol-1-yl)methyl)-N-((4-methoxypyridin-2-yl)methyl)picolinamide] | 1.3 | –
Cc1cc(F)ccc1-c1cc(Cn2ccn(C)c2=N)cc(C(=O)NCc2ccc(Cl)c(F)c2)n1 [Example 359, N-(4-Chloro-3-fluorobenzyl)-6-(4-fluoro-2-methylphenyl)-4-((2-imino-3-methyl-2,3-dihydro-1H-imidazol-1-yl)methyl)picolinamide] | 8.7 | –
